The values below come from patent US10501421B1, “Substituted benzimidazoles as modulators of Ras signaling” (VANDERBILT UNIVERSITY, priority 2017, dated 2019).

The target of assay [1] is Ras GEF SOS (Son of Sevenless) (Homo sapiens, UniProt Q07889). Kind of assay: SOS-mediated nucleotide exchange on Ras (BODIPY-GDP fluorescence). The class given is biochemical. The note with it: SOS-mediated exchange of BODIPY-GDP for GTP on Ras. The gist of the method: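 Ras loaded with BODIPY-GDP was mixed in buffer with test compound, then GTP and SOS. Fluorescence change from labeled GDP/GTP exchange was followed over time, and rates came from single-exponential fits. EC50 came from a four-parameter fit of mean rate against compound concentration.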

The next assay has as its target T1, Son of Sevenless (SOS) (Homo sapiens, UniProt Q07889).
T1 sequence (Q07889 564-1049 limits assumed): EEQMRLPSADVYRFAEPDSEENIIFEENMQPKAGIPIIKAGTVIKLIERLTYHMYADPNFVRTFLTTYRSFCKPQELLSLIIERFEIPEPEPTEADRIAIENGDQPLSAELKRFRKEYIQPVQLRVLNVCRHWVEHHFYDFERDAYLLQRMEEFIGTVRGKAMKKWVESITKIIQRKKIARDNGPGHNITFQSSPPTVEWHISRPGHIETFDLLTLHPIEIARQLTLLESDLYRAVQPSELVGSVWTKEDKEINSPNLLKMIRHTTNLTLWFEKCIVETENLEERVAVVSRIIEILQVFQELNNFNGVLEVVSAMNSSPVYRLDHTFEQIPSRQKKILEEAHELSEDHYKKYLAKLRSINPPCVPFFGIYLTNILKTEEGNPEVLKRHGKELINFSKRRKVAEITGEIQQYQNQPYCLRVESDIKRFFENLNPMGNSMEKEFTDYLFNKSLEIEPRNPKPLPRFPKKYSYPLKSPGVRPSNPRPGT
Kind of assay: Binding to SOS, fluorescence polarization anisotropy (FPA) probe displacement. The note with it: displacement of FITC-conjugated probe (Example 285), affinity calculated from IC50. The procedure, abridged: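 A FITC-conjugated probe compound was incubated with SOS in buffer, and its displacement was tracked as a change in fluorescence anisotropy across a test-compound dose range. IC50 came from a four-parameter variable-slope fit, and binding affinity was calculated from it.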

Where a name gives a salt, the structure may show the parent alone.

Sequence of Ras GEF SOS (Son of Sevenless) (P01112 1-166 partner limits assumed, one chain of several): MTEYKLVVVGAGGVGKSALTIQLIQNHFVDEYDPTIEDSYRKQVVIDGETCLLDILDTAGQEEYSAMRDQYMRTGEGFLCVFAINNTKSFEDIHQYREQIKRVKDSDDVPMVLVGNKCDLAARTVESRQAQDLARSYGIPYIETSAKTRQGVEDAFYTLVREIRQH

The compound `Cc1cc(Cn2c(N3CCNCC3)nc3c(-c4ccnn4-c4cccc5ccccc45)cc(Cl)cc32)cc(C)c1F` [Example 177, 6-chloro-1-(4-fluoro-3,5-dimethylbenzyl)-4-(1-(naphthalen-1-yl)-1H-pyrazol-5-yl)-2-(piperazin-1-yl)-1H-benzo[d]imidazole trifluoroacetate] displayed an EC50 in assay [1] of 30 to 100 µM. The Ki on Son of Sevenless (SOS) was 1 to 5 µM.

`Cc1cc(Cn2c(NCC3CNC3)nc3c(N4CCNCC4)cc(Cl)cc32)cc(C)c1F` [Example 309, N-(azetidin-3-ylmethyl)-6-chloro-1-(4-fluoro-3,5-dimethylbenzyl)-4-(piperazin-1-yl)-1H-benzo[d]imidazol-2-amine] gave an EC50 in assay [1] of 1 to 5 µM. Moreover, the Ki at Son of Sevenless (SOS) was under 0.5 µM.

Compound `CCc1cc2c(cc1C)nc(N1CCNCC1)n2Cc1ccc(F)c(Cl)c1` [Example 66, 1-(3-chloro-4-fluorobenzyl)-6-ethyl-5-methyl-2-(piperazin-1-yl)-1H-benzo[d]imidazole trifluoroacetate] displayed a half-maximal effective concentration (EC50) in assay [1] of 5 to 30 µM. The Ki at Son of Sevenless (SOS) is over 5 µM.

As for `Cc1cc(Cn2c(N3CCNCC3)nc3c(OCCN4CCCC4)cccc32)ccc1F` [Example 208, 1-(4-fluoro-3-methylbenzyl)-2-(piperazin-1-yl)-4-(2-(pyrrolidin-1-yl)ethoxy)-1H-benzo[d]imidazole], in assay [1], the EC50 was under 1 µM. Besides, the Ki on Son of Sevenless (SOS) is over 5 µM.

With `CCCN1CC[C@@H](C(=O)c2ccccc2)[C@H]1c1cc(Cl)cc2c1nc(N1CCNCC1)n2Cc1cc(C)c(F)c(C)c1` [Example 148, ((2S,3R)-2-(6-chloro-1-(4-fluoro-3,5-dimethylbenzyl)-2-(piperazin-1-yl)-1H-benzo[d]imidazol-4-yl)-1-propylpyrrolidin-3-yl)(phenyl)methanone trifluoroacetate], the EC50 in assay [1] fell in the range of 1 to 5 µM. For the same compound, at Son of Sevenless (SOS), the Ki was 0.5 to 1 µM.

For the compound `Cc1cc(OCCN2CCCC2)c2nc(N3CCNCC3)n(Cc3cc(C)c(F)c(C)c3)c2c1` [Example 316, 1-(4-fluoro-3,5-dimethylbenzyl)-6-methyl-2-(piperazin-1-yl)-4-(2-(pyrrolidin-1-yl)ethoxy)-1H-benzo[d]imidazole], the EC50 in assay [1] is under 1 µM. Moreover, the Ki at Son of Sevenless (SOS) was 1 to 5 µM.

In turn, `Fc1ccc(Cn2c(C3CCNCC3)nc3ccccc32)cc1` [Example 56, 1-(4-fluorobenzyl)-2-(piperidin-4-yl)-1H-benzo[d]imidazole trifluoroacetate] gave an EC50 in assay [1] of 5 to 30 µM. Also, the Ki on Son of Sevenless (SOS) is over 5 µM.

`Cc1cc2c(nc(N3CCNCC3)n2Cc2ccc(Cl)cc2)c(-c2ccccc2)c1C` [Example 105, 1-(4-chlorobenzyl)-5,6-dimethyl-4-phenyl-2-(piperazin-1-yl)-1H-benzo[d]imidazole trifluoroacetate]: in assay [1], the EC50 lay within 1 to 5 µM. The Ki on Son of Sevenless (SOS) is over 5 µM.

Consider `Cc1cc2c(nc(N3CCNCC3)n2Cc2ccc(F)c(C)c2)c(-c2ccccc2C)n1` [Example 225, 1-(4-fluoro-3-methylbenzyl)-6-methyl-2-(piperazin-1-yl)-4-(o-tolyl)-1H-imidazo[4,5-c]pyridine], for which the EC50 in assay [1] fell in the range of 5 to 30 µM. Further, the Ki at Son of Sevenless (SOS) is over 5 µM.

With `CC(C)c1ccc(-n2nccc2-c2cc(Cl)cc3c2nc(N2CCNCC2)n3Cc2ccc(F)c(Cl)c2)cc1` [Example 169, 6-chloro-1-(3-chloro-4-fluorobenzyl)-4-(1-(4-isopropylphenyl)-1H-pyrazol-5-yl)-2-(piperazin-1-yl)-1H-benzo[d]imidazole trifluoroacetate], the EC50 in assay [1] was 1 to 5 µM. Further, the Ki on Son of Sevenless (SOS) is over 5 µM.

On to `Clc1ccc(Cn2c(C3CCNCC3)nc3ccccc32)cc1` [Example 58, 1-(4-chlorobenzyl)-2-(piperidin-4-yl)-1H-benzo[d]imidazole trifluoroacetate], for which the EC50 in assay [1] fell in the range of 5 to 30 µM. Moreover, the inhibition constant (Ki) at Son of Sevenless (SOS) is over 5 µM.

Compound `Cc1cc(OCCN(C)C)c2nc(N3CCNCC3)n(Cc3cc(C)c(F)c(C)c3)c2c1` [Example 203, 2-((1-(4-fluoro-3,5-dimethylbenzyl)-6-methyl-2-(piperazin-1-yl)-1H-benzo[d]imidazol-4-yl)oxy)-N,N-dimethylethan-1-amine] had an EC50 in assay [1] of under 1 µM. Besides, the inhibitory constant (Ki) at Son of Sevenless (SOS) is 0.5 to 1 µM.

For the compound `Cc1cc2c(nc(N3CCNCC3)n2Cc2ccc(F)c(C)c2)c(-c2ccncc2)n1` [Example 226, 1-(4-fluoro-3-methylbenzyl)-6-methyl-2-(piperazin-1-yl)-4-(pyridin-4-yl)-1H-imidazo[4,5-c]pyridine], the EC50 in assay [1] was 5 to 30 µM. At Son of Sevenless (SOS), the Ki is over 5 µM.

Consider `Fc1ccc(Cn2c(N3CCNCC3)nc3ccc(Cl)cc32)cc1Cl` [Example 73, 6-chloro-1-(3-chloro-4-fluorobenzyl)-2-(piperazin-1-yl)-1H-benzo[d]imidazole trifluoroacetate], for which the EC50 in assay [1] was under 1 µM. The Ki at Son of Sevenless (SOS) was 0.5 to 1 µM.

With `Cc1cc(Cn2c(N3CCNCC3)nc3c(OCCN4CCN(C)CC4)cccc32)ccc1F` [Example 209, 1-(4-fluoro-3-methylbenzyl)-4-(2-(4-methylpiperazin-1-yl)ethoxy)-2-(piperazin-1-yl)-1H-benzo[d]imidazole], in assay [1], the EC50 was under 1 µM. Also, the Ki on Son of Sevenless (SOS) was over 5 µM.

In turn, `CC(C)N1CC[C@@H](C(=O)c2ccccc2)[C@@H]1c1cc(Cl)cc2c1nc(N1CCNCC1)n2Cc1ccc(F)c(Cl)c1` [Example 153, ((2R,3R)-2-(6-chloro-1-(3-chloro-4-fluorobenzyl)-2-(piperazin-1-yl)-1H-benzo[d]imidazol-4-yl)-1-isopropylpyrrolidin-3-yl)(phenyl)methanone trifluoroacetate] gave an EC50 in assay [1] of 5 to 30 µM. Moreover, the Ki at Son of Sevenless (SOS) was over 5 µM.

Compound `Cc1cc(Cn2c(N3CCNCC3)nc3c(-c4ccccc4C#Cc4ccccc4)cc(Cl)cc32)cc(C)c1F` [Example 182, 6-chloro-1-(4-fluoro-3,5-dimethylbenzyl)-4-(2-(phenylethynyl)phenyl)-2-(piperazin-1-yl)-1H-benzo[d]imidazole trifluoroacetate] yielded an EC50 in assay [1] of 1 to 5 µM. On Son of Sevenless (SOS), the Ki is over 5 µM.

In assay [1], `CCc1cc(Cn2c(NCCN)nc3c(-c4ccccc4Cl)c(C)c(C)cc32)ccc1Cl` [Example 112, N^1-(1-(4-chloro-3-ethylbenzyl)-4-(2-chlorophenyl)-5,6-dimethyl-1H-benzo[d]imidazol-2-yl)ethane-1,2-diamine trifluoroacetate] had an EC50 of 5 to 30 µM. On Son of Sevenless (SOS), the Ki was 1 to 5 µM.

`CCC[C@H](N)c1cccc2c1nc(N1CCNCC1)n2Cc1ccc(F)c(Cl)c1` [Example 165, (S)-1-(1-(3-chloro-4-fluorobenzyl)-2-(piperazin-1-yl)-1H-benzo[d]imidazol-4-yl)butan-1-amine trifluoroacetate] gave an EC50 in assay [1] of 1 to 5 µM. Also, the Ki at Son of Sevenless (SOS) was 1 to 5 µM.

In assay [1], `NCCNCc1cc(Cl)cc2c1nc(N1CCNCC1)n2Cc1ccc(F)c(Cl)c1` [Example 137, N^1-((6-chloro-1-(3-chloro-4-fluorobenzyl)-2-(piperazin-1-yl)-1H-benzo[d]imidazol-4-yl)methyl)ethane-1,2-diamine trifluoroacetate] returned an EC50 of 1 to 5 µM. Besides, the Ki on Son of Sevenless (SOS) is 1 to 5 µM.

In turn, `C=Cc1cc2c(cc1C)nc(NCCN)n2Cc1ccc(F)c(Cl)c1` [Example 65, N^1-(1-(3-chloro-4-fluorobenzyl)-5-methyl-6-vinyl-1H-benzo[d]imidazol-2-yl)ethane-1,2-diamine trifluoroacetate] registered an EC50 in assay [1] of 1 to 5 µM. Also, on Son of Sevenless (SOS), the Ki is 1 to 5 µM.

In turn, `Cc1cc(Cn2c(NCC3CNC3)nc3c(C4=CCNCC4)cc(Cl)cc32)cc(C)c1F` [Example 302, N-(azetidin-3-ylmethyl)-6-chloro-1-(4-fluoro-3,5-dimethylbenzyl)-4-(1,2,3,6-tetrahydropyridin-4-yl)-1H-benzo[d]imidazol-2-amine] returned a half-maximal effective concentration (EC50) in assay [1] of under 1 µM. The inhibition constant (Ki) at Son of Sevenless (SOS) is 0.5 to 1 µM.

In assay [1], `Cc1cc2nc(NCCN)n(Cc3cccc(Br)c3)c2cc1C` [Example 35, N^1-(1-(3-bromobenzyl)-5,6-dimethyl-1H-benzo[d]imidazol-2-yl)ethane-1,2-diamine trifluoroacetate] showed an EC50 of 1 to 5 µM. The Ki on Son of Sevenless (SOS) is 1 to 5 µM.

Compound `Cc1cc2nc(NCCN)n(Cc3cc(C)c(F)c(C)c3)c2cc1C` [Example 42, N^1-(1-(4-fluoro-3,5-dimethylbenzyl)-5,6-dimethyl-1H-benzo[d]imidazol-2-yl)ethane-1,2-diamine trifluoroacetate] had an EC50 in assay [1] of 1 to 5 µM. Besides, on Son of Sevenless (SOS), the inhibition constant Ki is 1 to 5 µM.

In assay [1], `Cc1cc2nc(N3CCNCC3)n(Cc3ccc(F)cc3)c2cc1C` [Example 21, 1-(4-fluorobenzyl)-5,6-dimethyl-2-(piperazin-1-yl)-1H-benzo[d]imidazole trifluoroacetate] had an EC50 of 5 to 30 µM. The Ki on Son of Sevenless (SOS) is over 5 µM.

Take `Cc1cc2c(nc(N3CCNCC3)n2Cc2ccc(F)c(Cl)c2)c(-c2ccnn2-c2ccccc2)c1C` [Example 171, 1-(3-chloro-4-fluorobenzyl)-5,6-dimethyl-4-(1-phenyl-1H-pyrazol-5-yl)-2-(piperazin-1-yl)-1H-benzo[d]imidazole trifluoroacetate]: in assay [1], the EC50 lay in the range of 1 to 5 µM. For the same compound, the Ki at Son of Sevenless (SOS) is 1 to 5 µM.

Broadly, the EC50 is the concentration at which the effect is half-maximal. The low end stands for higher potency in that assay, the high end for lower potency in that assay. Broadly, the Ki is a dissociation constant, usually derived from enzyme kinetics or from competition with a known ligand.
